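A five-concentration, 48-hour dose response in 96-well plates underlies each endpoint, interpolated linearly between surrounding concentrations. At the GI50, growth is halved.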 Calls of active or inactive are those of the source. Cut-off read from the data, not from the text of the source: active = GI50 up to about 1.1 µM and inactive = higher.
Key:
Assay in all cases: growth of human tumour cells (NCI), 48 h
KM12 = system: KM12
SR = system: SR
MOLT-4 = system: MOLT-4
SNB-78 = system: SNB-78
HCT-116 = system: HCT-116
A549 = system: A549
DLD-1 = system: DLD-1
UO-31 = system: UO-31
UACC-62 = system: UACC-62
OVCAR-3 = system: OVCAR-3
NCI-H23 = system: NCI-H23
K562 = system: K562
NCI-H522 = system: NCI-H522
KM-20L2 = system: KM-20L2
DMS-273 = system: DMS-273
HOP-62 = system: HOP-62
ACHN = system: ACHN
HL-60 = system: HL-60
CCRF-CEM = system: CCRF-CEM
OVCAR-4 = system: OVCAR-4
HT-29 = system: HT-29
UACC-257 = system: UACC-257
NCI-H460 = system: NCI-H460
HOP-92 = system: HOP-92
HOP-18 = system: HOP-18
LXFL 529 = system: LXFL 529
786-0 = system: 786-0
SF-268 = system: SF-268
SK-MEL-28 = system: SK-MEL-28
IGROV-1 = system: IGROV-1
SNB-19 = system: SNB-19
SN12C = system: SN12C
TK-10 = system: TK-10
SNB-75 = system: SNB-75
SW-620 = system: SW-620
HCC 2998 = system: HCC 2998
A498 = system: A498
RXF 393 = system: RXF 393
Malme-3M = system: Malme-3M
U-251 = system: U-251
OVCAR-8 = system: OVCAR-8
CAKI-1 = system: CAKI-1
SK-OV-3 = system: SK-OV-3
M14 = system: M14
SF-295 = system: SF-295
NCI-H226 = system: NCI-H226
LOX IMVI = system: LOX IMVI
SF-539 = system: SF-539
RPMI-8226 = system: RPMI-8226
DMS-114 = system: DMS-114
SK-MEL-2 = system: SK-MEL-2
SK-MEL-5 = system: SK-MEL-5
EKVX = system: EKVX
COLO 205 = system: COLO 205
HCT-15 = system: HCT-15
OVCAR-5 = system: OVCAR-5
XF498 = system: XF498
M19-MEL = system: M19-MEL

CNC(C)Cc1ccccc1O (stereo unspecified)
GI50 (KM12): > 100 µM (inactive)
GI50 (SR): > 100 µM (inactive)
GI50 (MOLT-4): > 100 µM (inactive)
GI50 (SNB-78): > 100 µM (inactive)
GI50 (HCT-116): > 100 µM (inactive)
GI50 (A549): > 100 µM (inactive)
GI50 (DLD-1): > 100 µM (inactive)
GI50 (UO-31): > 100 µM (inactive)
GI50 (UACC-62): > 100 µM (inactive)
GI50 (OVCAR-3): > 100 µM (inactive)
GI50 (NCI-H23): > 100 µM (inactive)
GI50 (K562): > 100 µM (inactive)
GI50 (NCI-H522): > 100 µM (inactive)
GI50 (KM-20L2): > 100 µM (inactive)
GI50 (DMS-273): > 100 µM (inactive)
GI50 (HOP-62): > 100 µM (inactive)
GI50 (ACHN): > 100 µM (inactive)
GI50 (HL-60): > 100 µM (inactive)
GI50 (CCRF-CEM): > 100 µM (inactive)
GI50 (OVCAR-4): > 100 µM (inactive)
GI50 (HT-29): > 100 µM (inactive)
GI50 (UACC-257): > 100 µM (inactive)
GI50 (NCI-H460): > 100 µM (inactive)
GI50 (HOP-92): > 100 µM (inactive)
GI50 (HOP-18): > 100 µM (inactive)
GI50 (LXFL 529): > 100 µM (inactive)
GI50 (786-0): > 100 µM (inactive)
GI50 (SF-268): > 100 µM (inactive)
GI50 (SK-MEL-28): > 100 µM (inactive)
GI50 (IGROV-1): > 100 µM (inactive)
GI50 (SNB-19): > 100 µM (inactive)
GI50 (SN12C): > 100 µM (inactive)
GI50 (TK-10): > 100 µM (inactive)
GI50 (SNB-75): > 100 µM (inactive)
GI50 (SW-620): > 100 µM (inactive)
GI50 (HCC 2998): > 100 µM (inactive)
GI50 (A498): > 100 µM (inactive)
GI50 (RXF 393): > 100 µM (inactive)
GI50 (Malme-3M): > 100 µM (inactive)
GI50 (U-251): > 100 µM (inactive)
GI50 (OVCAR-8): > 100 µM (inactive)
GI50 (CAKI-1): > 100 µM (inactive)
GI50 (SK-OV-3): > 100 µM (inactive)
GI50 (M14): > 100 µM (inactive)
GI50 (SF-295): > 100 µM (inactive)
GI50 (NCI-H226): > 100 µM (inactive)
GI50 (LOX IMVI): > 100 µM (inactive)
GI50 (SF-539): > 100 µM (inactive)
GI50 (RPMI-8226): > 100 µM (inactive)
GI50 (DMS-114): > 100 µM (inactive)
GI50 (SK-MEL-2): > 100 µM (inactive)
GI50 (SK-MEL-5): > 100 µM (inactive)
GI50 (EKVX): > 100 µM (inactive)
GI50 (COLO 205): > 100 µM (inactive)
GI50 (HCT-15): 8.71 µM
GI50 (OVCAR-5): > 100 µM (inactive)

O=c1oc(-c2ccccc2)cn1-c1ccccc1
GI50 (MOLT-4): > 100 µM (inactive)
GI50 (SNB-78): > 100 µM (inactive)
GI50 (HCT-116): > 100 µM (inactive)
GI50 (DLD-1): > 100 µM (inactive)
GI50 (NCI-H23): > 100 µM (inactive)
GI50 (K562): > 100 µM (inactive)
GI50 (NCI-H522): 70.8 µM (inactive)
GI50 (KM-20L2): 94.8 µM (inactive)
GI50 (DMS-273): > 100 µM (inactive)
GI50 (HOP-62): > 100 µM (inactive)
GI50 (HL-60): > 100 µM (inactive)
GI50 (CCRF-CEM): > 100 µM (inactive)
GI50 (OVCAR-4): > 10 µM (inactive)
GI50 (NCI-H460): > 100 µM (inactive)
GI50 (HOP-18): 95.3 µM (inactive)
GI50 (LXFL 529): > 100 µM (inactive)
GI50 (786-0): > 100 µM (inactive)
GI50 (SK-MEL-28): > 100 µM (inactive)
GI50 (SNB-19): > 100 µM (inactive)
GI50 (SN12C): > 100 µM (inactive)
GI50 (SNB-75): > 100 µM (inactive)
GI50 (HCC 2998): > 100 µM (inactive)
GI50 (RXF 393): > 100 µM (inactive)
GI50 (U-251): > 100 µM (inactive)
GI50 (M14): > 100 µM (inactive)
GI50 (NCI-H226): > 100 µM (inactive)
GI50 (XF498): > 100 µM (inactive)
GI50 (LOX IMVI): 94.8 µM (inactive)
GI50 (SF-539): 88.7 µM (inactive)
GI50 (RPMI-8226): > 100 µM (inactive)

CSc1nc(NC2OC(COC(C)=O)C(OC(C)=O)C(OC(C)=O)C2OC(C)=O)c(/N=C(\C)C(C)=O)c(=O)n1C (stereo unspecified)
GI50 (KM12): > 100 µM (inactive)
GI50 (MOLT-4): > 100 µM (inactive)
GI50 (SNB-78): > 100 µM (inactive)
GI50 (HCT-116): > 100 µM (inactive)
GI50 (A549): > 100 µM (inactive)
GI50 (DLD-1): > 100 µM (inactive)
GI50 (UO-31): > 100 µM (inactive)
GI50 (UACC-62): > 100 µM (inactive)
GI50 (OVCAR-3): > 100 µM (inactive)
GI50 (K562): > 100 µM (inactive)
GI50 (HOP-62): > 100 µM (inactive)
GI50 (HL-60): > 100 µM (inactive)
GI50 (CCRF-CEM): > 100 µM (inactive)
GI50 (OVCAR-4): > 100 µM (inactive)
GI50 (HT-29): > 100 µM (inactive)
GI50 (UACC-257): > 100 µM (inactive)
GI50 (HOP-92): > 100 µM (inactive)
GI50 (HOP-18): > 100 µM (inactive)
GI50 (LXFL 529): > 100 µM (inactive)
GI50 (786-0): > 100 µM (inactive)
GI50 (IGROV-1): > 100 µM (inactive)
GI50 (M19-MEL): > 100 µM (inactive)
GI50 (SNB-19): > 100 µM (inactive)
GI50 (TK-10): > 100 µM (inactive)
GI50 (SW-620): > 100 µM (inactive)
GI50 (HCC 2998): > 100 µM (inactive)
GI50 (Malme-3M): > 100 µM (inactive)
GI50 (OVCAR-8): > 100 µM (inactive)
GI50 (CAKI-1): > 100 µM (inactive)
GI50 (SK-OV-3): > 100 µM (inactive)
GI50 (M14): > 100 µM (inactive)
GI50 (SF-295): > 100 µM (inactive)
GI50 (NCI-H226): > 100 µM (inactive)
GI50 (SF-539): > 100 µM (inactive)
GI50 (RPMI-8226): > 100 µM (inactive)
GI50 (DMS-114): > 100 µM (inactive)
GI50 (SK-MEL-2): > 100 µM (inactive)
GI50 (SK-MEL-5): > 100 µM (inactive)
GI50 (EKVX): > 100 µM (inactive)
GI50 (COLO 205): > 100 µM (inactive)
